25 compounds from patent US6610877B1, “Aromatic carboxylic acid derivatives” (Hoffman-La Roche Inc., priority 1993, dated 2003) can be followed below.

In series [1] the test system is Hairless mice (HRS/J strain). Kind of series: Repair of UV-B-caused skin damage in the hairless mouse. The class given is in vivo. To be noted: three times a week, 10 weeks, Luna staining of elastin, total surface per 20 microscopic field. An excerpt: Repair of UV-B-caused Skin Damage in the Hairless Mouse Hairless mice (HRS/J strain, Jackson Labs, aged 5-7 weeks at the beginning of the experiment) were irradiated three times a week with an arrangement of 8 Westinghouse irradiation lamps (FS40) which were placed about 20 cm above the animals. The radiation dose was controlled by a commercial phototherapeutic control device. The UV-B dose was chosen such that the dosage scarcely exceeded 0.06 J/cm^2, caused a minimal erythema, but no burning or scarring. After a total dose of about 3.5 J/cm^2 there resulted a significant elastosis which was evident from a histological report and which was confirmed by measuring the elastin using a radioimmunoassay for desmosin in the total skin. The desmosin content increased by two- to three-fold after 3.5 J/cm^2 UV-B irradiation. In order to make good the skin damage, the UV irradiation was interrupted and groups of animals were treated three times a week with different doses of compounds of formula I dissolved in acetone. These solutions were prepared freshly each week such that the dosage to be administered was present in […] of acetone and were applied topically to an area of about 10 cm^2 on the backs of the animals. A controlled group was treated only with acetone. After treatment for 10 weeks the animals were killed, skin preparations were prepared and the extent of the recovery was measured quantitatively by Luna staining of the elastin. In this experimental model the skin recovery is defined as the appearance of a normal dermis which extends from the epidermis to the layer of compressed elastin. The extent of the recovery was given by the width of this zone. The area of the zone on a standard length of the histological section was measured and the result was expressed as the total surface in mm^2 per 20 microscopic field.

The compound `CCCCCCC1C2=C(CC1/C=C/c1ccc(C(=O)O)cc1)C(C)(C)CC=C2` (stereo not shown) [Example 13 (second compound), (E)-4-[2-(3-Hexyl-7,7-dimethyl-indan-2-yl)vinyl]benzoic acid] showed a melting point of 149 to 150 °C. Consider `CCCCCC(=O)c1cc2c(cc1/C=C/c1ccc(C(=O)O)cc1)C(C)(C)CCC2(C)C` [Example 16, (E)-4-[2-(3-hexanoyl-5,5,8,8-tetramethyl-5,6,7,8-tetrahydro-naphthalen-2-yl)vinyl]benzoic acid], for which the melting point lay in the range of 118 to 119 °C. For `CCCCCc1cc2c(cc1C#C/C=C/C(C)=C/C(=O)O)C(C)(C)CCC2(C)C` [Example 17 (2E,4E), (2E,4E)-3-methyl-7-(5,5,8,8-tetramethyl-3-pentyl-5,6,7,8-tetrahydro-naphthalen-2-yl)-hepta-2,4-dien-6-ynoic acid], the melting point lay within 155 to 156 °C. Compound `CCCCOc1cc2c(cc1/C=C/C=C/C(C)=C/C(=O)O)[C@]1(C)CCC[C@@]2(C)[C@@H]1O` (racemic) [Example 19, (2E,4E,6E)-(5RS,9SR,10RS)-7-(3-butoxy-10-hydroxy-5,9-dimethyl-6,7,8,9-tetrahydro-5,9-methano-5H-benzocyclohepten-2-yl)-3-methyl-hepta-2,4,6-trienoic acid] registered a melting point of 176 to 178 °C. For `CCCCCCc1cc2c(cc1/C=C/C=C/C(C)=C/C(=O)O)C(C)(C)CCC2(C)C` [Compound C, (all E)-7-(3-Hexyl-5,5,8,8-tetramethyl-5,6,7,8-tetrahydro-naphthalen-2-yl)-3-methyl-hepta-2,4,6-trienoic Acid], the “Recovery Zone” value is listed as 32.8 ± 6.72 mm^2 • 10^−3 in series [1] (2 μg topically in acetone) and 59.5 ± 6.71 mm^2 • 10^−3 in series [1] (10 μg topically in acetone). With `CCCCc1cc2c(cc1/C=C/c1ccc(C(=O)O)cc1)C(C)(C)CCCC2` [Example 13 (fourth compound), (E)-4-[2-(3-butyl-9,9-dimethyl-6,7,8,9-tetrahydro-5H-benzocyclohepten-2-yl)vinyl]benzoic acid], the melting point was in the range of 81 to 83 °C.

Consider `CCc1cc2c(cc1/C=C/c1ccc(C(=O)O)cc1)C(C)(C)CCC2(C)C` [Compound D, p-[(E)-2-(3-Ethyl-5,6,7,8-tetrahydro-5,5,8,8-tetramethyl-2-naphthyl)vinyl]benzoic Acid], for which the entries for the “Recovery Zone” value in series [1] (0.5 μg topically in acetone), in series [1] (2 μg topically in acetone) and in series [1] (10 μg topically in acetone) were 15.5 ± 4.9 mm^2 • 10^−3, 19.1 ± 4.9 mm^2 • 10^−3 and 46.5 ± 6.9 mm^2 • 10^−3, respectively.

`CCC#CCOc1cc2c(cc1/C=C/c1ccc(C(=O)O)cc1)C(C)(C)CCC2(C)C` [Example 20, (E)-4-[2-(3-pent-2-ynyloxy-5,5,8,8-tetramethyl-5,6,7,8-tetrahydro-naphthalen-2-yl)-vinyl]-benzoic acid] came in with a melting point of 144 to 145 °C. Regarding `C/C=C/COc1cc2c(cc1/C=C/c1ccc(C(=O)O)cc1)C(C)(C)CCC2(C)C` [Example 22 (but-2-enyloxy), 4-[(E)-2-((E)-3-but-2-enyloxy-5,5,8,8-tetramethyl-5,6,7,8-tetrahydro-naphthalen-2-yl)-vinyl]-benzoic acid], the melting point was in the range of 178 to 180 °C. Take `CCCCCCc1cc2c(cc1/C=C/c1ccc(C(=O)O)cc1)C(C)(C)CCC2(C)C` [Compound A, p-[(E)-2-(3-Hexyl-5,6,7,8-tetrahydro-5,5,8,8-tetramethyl-2-naphthyl)vinyl]benzoic Acid]: the melting point was in the range of 134 to 136 °C. Moreover, the “Recovery Zone” value in series [1] (0.05 μg topically in acetone) was determined as 9.8 ± 2.8 mm^2 • 10^−3. Moreover, the “Recovery Zone” value in series [1] (2 μg topically in acetone) was 27.2 ± 2.6 mm^2 • 10^−3. Further, the “Recovery Zone” value in series [1] (10 μg topically in acetone) worked out at 35.9 ± 7.5 mm^2 • 10^−3.

In turn, `CCCCCc1cc2c(cc1/C=C/C=C/C(C)=C/C(=O)O)C(C)(C)CCC2(C)C` [Example 5, (2E,4E,6E)-7-(3-Pentyl-5,5,8,8-tetramethyl-5,6,7,8-tetrahydro-naphthalen-2-yl)-3-methyl-hepta-2,4,6-trienoic acid] showed a melting point of 164 to 166 °C. As for `CCCCCCCCc1cc2c(cc1/C=C/c1ccc(C(=O)O)cc1)C(C)(C)CCC2(C)C` [Compound E, p-[(E)-2-(3-Octyl-5,6,7,8-tetrahydro-5,5,8,8-tetramethyl-2-naphthyl)vinyl]benzoic Acid], the “Recovery Zone” value in series [1] (0.5 μg topically in acetone) came to 7.48 ± 1.7 mm^2 • 10^−3; in series [1] (2 μg topically in acetone), 4.70 ± 2.0 mm^2 • 10^−3; in series [1] (10 μg topically in acetone), 22.2 ± 8.3 mm^2 • 10^−3. `CCCCCOc1cc2c(cc1/C=C/C=C/C(C)=C/C(=O)O)C(C)(C)CCC2(C)C` [Example 10 (2E isomer), (2E,4E,6E)-3-methyl-7-(5,5,8,8-tetramethyl-3-pentoxy-5,6,7,8-tetrahydro-naphthalen-2-yl)-hepta-2,4,6-trienoic acid] had a melting point of 162 to 163 °C. Regarding `CCCCc1cc2c(cc1/C=C/c1ccc(C(=O)O)cc1)C(C)(C)CCC2(C)C` [Compound B, 4-[(E)-2-(3-Butyl-5,5,8,8-tetramethyl-5,6,7,8-tetrahydro-naphth-2-yl)vinyl]benzoic Acid], the figures for the “Recovery Zone” value in series [1] (0.5 μg topically in acetone) and in series [1] (2 μg topically in acetone) were 15.6 ± 2.74 mm^2 • 10^−3 and 20.5 ± 7.17 mm^2 • 10^−3, respectively. On to `CCC#CCOc1cc2c(cc1/C=C/C=C/C(C)=C/C(=O)O)C(C)(C)CCC2(C)C` [Example 21, (2E,4E,6E)-3-methyl-7-(3-pent-2-ynyloxy-5,5,8,8-tetramethyl-5,6,7,8-tetrahydro-naphthalen-2-yl)-hepta-2,4,6-trienoic acid], for which the melting point lay within 208 to 209 °C.

Compound `CCCCCCCOc1cc2c(cc1/C=C/c1ccc(C(=O)O)cc1)[C@]1(C)CCC[C@@]2(C)[C@@H]1O` (racemic) [Example 14, (E)-4-[2-[(5RS,9SR,10RS)-3-heptyloxy-10-hydroxy-5,9-dimethyl-6,7,8,9-tetrahydro-5,9-methano-5H-benzocyclohepten-2-yl]vinyl]benzoic acid] displayed a melting point of 89 to 90 °C.

As to `C=CCOc1cc2c(cc1/C=C/c1ccc(C(=O)O)cc1)C(C)(C)CCC2(C)C` [Example 22 (allyloxy), (E)-4-[2-(3-allyloxy-5,5,8,8-tetramethyl-5,6,7,8-tetrahydro-naphthalen-2-yl)-vinyl]-benzoic acid], the melting point fell in the range of 191 to 192 °C. For `CCCCCCc1cc2c(cc1/C=C/c1ccc(C(=O)O)cc1)CCCCC2(C)C` [Example 13 (third compound), (E)-4-[2-(3-hexyl-5,5-dimethyl-6,7,8,9-tetrahydro-5H-benzocyclohepten-2-yl)vinyl]benzoic acid], the melting point lay in the range of 133 to 134 °C. `CCCCCc1cc2c(cc1/C=C/c1ccc(C(=O)O)cc1)C(C)(C)CCC2(C)C` [Example 2, (E)-4-[2-(3-Pentyl-5,5,8,8-tetramethyl-5,6,7,8-tetrahydro-naphthalen-2-yl)vinyl]benzoic acid] yielded a melting point of 173 to 174 °C. The compound `C=CCOc1cc2c(cc1/C=C/C=C/C(C)=C/C(=O)O)C(C)(C)CCC2(C)C` [Example 23 (allyloxy), (2E,4E,6E)-7-(3-allyloxy-5,5,8,8-tetramethyl-5,6,7,8-tetrahydro-naphthalen-2-yl)-3-methyl-hepta-2,4,6-trienoic acid] gave a melting point of 193 to 194 °C. For `CCCCCCCCc1cc2c(cc1/C=C/c1ccc(C(=O)O)cc1)CCC(C)(C)CC2` [Example 11, (E)-4-[2-(7,7-dimethyl-3-octyl-6,7,8,9-tetrahydro-5H-benzocyclohepten-2-yl)vinyl]benzoic acid], the melting point was in the range of 179.5 to 180.5 °C. `CCCCCc1cc2c(cc1/C=C/C=C/C(C)=C\C(=O)O)C(C)(C)CCC2(C)C` [Example 6, (2Z,4E,6E)-7-(3-Pentyl-5,5,8,8-tetramethyl-5,6,7,8-tetrahydro-naphthalen-2-yl)-3-methyl-hepta-2,4,6-trienoic acid]: the melting point was 170 to 174 °C. On the same count and under the same terms, with `CCCCc1cc2c(cc1/C=C/c1ccc(C(=O)O)cc1)CCCCC2(C)C` [Example 13, (E)-4-[2-(3-Butyl-5,5-dimethyl-6,7,8,9-tetrahydro-5H-benzocyclohepten-2-yl)vinyl]benzoic acid] the figure was 184 to 186 °C; with `CCCCCOc1cc2c(cc1/C=C/c1ccc(C(=O)O)cc1)C(C)(C)CCC2(C)C` [Example 8, (E)-4-[2-(5,5,8,8-Tetramethyl-3-pentoxy-5,6,7,8-tetrahydro-naphthalen-2-yl)vinyl]benzoic acid], 148 to 149 °C. As for `CCCCCCCCc1cc2c(cc1/C=C/c1ccc(C(=O)O)cc1)CCC(C)(C)CC2C` (racemic) [Example 12, Rac-(E)-4-[2-(5,7,7-trimethyl-3-octyl-6,7,8,9-tetrahydro-5H-benzocyclohepten-2-yl)vinyl]benzoic acid], the melting point fell in the range of 182 to 183 °C.
